# Laboratory results from US20110021471A1, “REDUCING Abeta42 LEVELS AND Abeta AGGREGATION” (priority 2007, published 2011).
# Columns and labels:
# APP wild-type cells = assay: Aβ modulation in APP wild-type cells; format: cell-based; set-up: Aβ42 raised: dose or concentration left out as unconfirmed
# Protocol: (§1) (A) and (B) The sequences of wildtype (WT; A) APP and the mutated substrate (B) containing the homologous region (italic, underlined) of the NOTCH transmembrane domain (TMD) in APP where GSMs are hypothesized to bind. […] Bottom row, FT-1 ([…]) raised Aβ42 200% in APP wild-type cells (A); however, in APP-NOTCH TMD cells (B), FT-1 caused minimal changes in the Aβ42 (95%) or Aβ40 (90%) signal. Data are presented as amyloid-β percentage of control±s.e.m., n=3.
# FIG. 19. Substitution of human Notch sequence in the APP transmembrane domain (TMD) changes sensitivity to modulation. (A) Site-directed mutagenesis was used to exchange the analogous region of the human Notch TMD (bold and underlined) for a section (bold and underlined) of wild-type APP (APPwt) we have shown to be labeled by GSMs. The new substrate (APP-Notch TMD) is cleaved by γ-secretase primarily after valine and alanine residues corresponding to 40 and 42 in APPwt (arrows). […] The beginning (1) N-terminal amino acid (AA) to the ending C-terminal AA is shown above each peak, with the molecular weight (m/z) below. 1-40 and 1-42 are detected as the two major species in APP-Notch TMD conditioned media. It should be noted that the mutagenesis strategy to create APPNotch TMD led to a single AA deletion relative to APPwt. […] Both cell lines were treated (6 hours) with L-685,458 (10 μM), which is hypothesized to target the active site aspartate residues, media was collected, and analyzed for changes in Aβ levels. […]
# To test the hypothesis that mutation of the GSM binding site in APP should alter sensitivity to GSMs, a portion of the GSM binding site in APP was exchanged with the analogous region of human NOTCH (FIGS. 18A and 18B; FIG. 19). […] Although the molecular weight and abundance of each chimeric peptide differed from amyloid-β peptides from APP, the main species produced from the APP-NOTCH TMD construct had identical C-termini to Ab1-40 and Ab1-42, and could be quantified by enzyme-linked immunosorbent assays (ELISAs; FIG. 19). […]
# APP-NOTCH TMD cells = assay: Aβ modulation in APP-NOTCH TMD cells; format: cell-based, human; set-up: Aβ42 signal (percentage of control) / Aβ40 signal (percentage of control): dose or concentration left out as unconfirmed
# Protocol: as §1
# FIG. 19. Substitution of human Notch sequence in the APP transmembrane domain (TMD) changes sensitivity to modulation. (A) Site-directed mutagenesis was used to exchange the analogous region of the human Notch TMD (bold and underlined) for a section (bold and underlined) of wild-type APP (APPwt) we have shown to be labeled by GSMs. The new substrate (APP-Notch TMD) is cleaved by γ-secretase primarily after valine and alanine residues corresponding to 40 and 42 in APPwt (arrows). […] The beginning (1) N-terminal amino acid (AA) to the ending C-terminal AA is shown above each peak, with the molecular weight (m/z) below. 1-40 and 1-42 are detected as the two major species in APP-Notch TMD conditioned media. It should be noted that the mutagenesis strategy to create APPNotch TMD led to a single AA deletion relative to APPwt. The correct change in molecular weight caused by the introduced mutations were confirmed by the mass spectrum. For simplicity the peptides are referenced by their C-terminal residues relative to Aβ (40, 42, etc). Representative mass spectra are shown from multiple IP reactions (3) and duplicate spots. […] Both cell lines were treated (6 hours) with L-685,458 (10 μM), which is hypothesized to target the active site aspartate residues, media was collected, and analyzed for changes in Aβ levels. The 40 and 42 Aβ reactive species from both cell lines were inhibited by L-685,458 with equal sensitivity (no significant difference; 40 p>0.5; 42 p>0.4; t test; n=3).
# To test the hypothesis that mutation of the GSM binding site in APP should alter sensitivity to GSMs, a portion of the GSM binding site in APP was exchanged with the analogous region of human NOTCH (FIGS. 18A and 18B; FIG. 19). The chimeric construct was used because the NOTCH transmembrane domain (TMD) appears resistant to GSM effects. The APP NOTCH TMD construct produced a spectrum of chimeric amyloid-β species in conditioned cell media (FIG. 19). Although the molecular weight and abundance of each chimeric peptide differed from amyloid-β peptides from APP, the main species produced from the APP-NOTCH TMD construct had identical C-termini to Ab1-40 and Ab1-42, and could be quantified by enzyme-linked immunosorbent assays (ELISAs; FIG. 19). The relative sensitivity to GSMs of APP-NOTCH TMD versus APP was assayed in stably transfected cells. […]
# [1] = tested on: 7PA2 cells (CHO cells stably expressing human APP751 V717F); assay: 7PA2 cells: Aβ oligomers (IP/western) and Aβ ELISA; format: cell-based, Chinese hamster
# Protocol: FIG. 17. γ-secretase modulators decrease the production of cell derived Aβ oligomers. CHO cells stably expressing human APP751 containing the familial Alzheimer's disease mutation V717F (referred to as 7PA2 cells) were incubated for ˜16 hours in the presence of GSMs. […] Aβ40 levels were decreased to varying degrees (26-35%; Li-Cor Odyssey). (B) and (C) Because the extended incubation times necessary to reliably detect Aβ oligomers in this assay can be toxic, we carried out additional dose response studies with fenofibrate and FT-9 to verify that decreases in Aβ oligomers levels were not related to toxicity or global inhibition of Aβ production. […] (C) Increasing doses of FT-9 reduced the detection of Aβ oligomeric bands and Aβ42 decreased preferentially with decreases in Aβ40 at higher doses. […] Aβ species present in conditioned medium were detected by IP using the polyclonal anti-Aβ antibody, DW6 and subsequent immunoblotting with either 6E10 or the 42-specific, anti-Aβ antibody 21F12. Aβ levels in the samples analyzed via IP/western were also quantified via sandwich ELISA. Data presented as percent vehicle control±s.e.m., n=2.
# To address the question of whether GSMs influence the concentration of secreted amyloid-β oligomers, such as those released by Chinese hamster ovary (CHO) cells expressing the APP V717F mutation (referred to as 7PA2 cells), which alter long-term potentiation and perturb the memory of learned behavior when injected into rat brain, 7PA2 cells were treated with two Aβ42-raising GSMs and a novel Aβ42-lowering GSM (FIG. 17) (Walsh et al., Nature 416:535:539 (2002); Calabrese et al., Mol. Cell. Neurosci. 35:183-193 (2007)). Fenofibrate and FT-1 increased amounts of Aβ42 whereas FT-9 lowered Aβ42, but all three GSMs decreased amounts of amyloid-β dimers and trimers. […] In contrast to increased amyloid-β oligomer formation, when CHO cells are genetically manipulated to increase Aβ42 production by co-expression of APP and FAD-linked mutant PSEN1 proteins, both Aβ42-lowering and -raising GSMs decreased oligomer formation (Xia et al., J. Biol. Chem. 272: 7977-7982 (1997)).
# Tg2576 mice = assay: Acute oral dosing of Tg2576 mice, brain soluble Aβ after 4 hours; format: in vivo, mouse
# Protocol: FIG. 2. Aβ modulating agents can inhibit Aβ aggregation, and agents that bind Aβ amyloid can modulate Aβ42 production. […] (C) Aβ42 modulating agents inhibit naturally secreted oligomer formation. 7PA2 cells were treated with fenofibrate, FT-1, or FT-9 at 50 μM and oligomers assessed by IP Western blotting. […] (D) FT-9, an Aβ42 reducing agent, can inhibit Aβ42 aggregation in vitro.
# FIG. 13. Compounds that bind Aβ are GSMs in vitro and in vivo. (A) A cell-based screen of Aβ-binders identified molecules that increase Aβ42 (DAPH) or decrease Aβ42 (Bis-ANS, X-34 or chrysamine G (CG)). Data are mean±s.e.m., n=3. (B) X-34 is an Aβ42-lowering GSM. Changes in amyloid-β peptide amounts after X-34 treatment are shown. Data are presented as percentage control±s.e.m., n=3. EC50 values were calculated. […] NA, not applicable. (C) X-34 binds to APP(C100)-Flag and decreases labeling by GSM photoprobes. Biotin incorporation into APP by Fen-B and Flurbi-BpB is presented as percentage of control (peptide without X-34)±s.e.m., n=2. (D) X-34 lowers Aβ42 in Tg2576 mice after 4 h. […] Data are presented as amyloid-β percentage of control relative to vehicle±s.e.m. Animals per group (n). Asterisk, P,0.05; two asterisks, P,0.01; ANOVA with Dunnett's post-hoc analysis.
# (§2) Finally, X-34 was tested for its ability to modulate Aβ42 amounts in an APP transgenic mouse (Tg2576).
# H4Bri-C99 (CTF-3) = settings: 6 hours
# Protocol: FIG. 6. […] Parent GSMs and biotin tagged photoactivatable GSMs were evaluated for their effects on Aβ secreted from H4Bri-C99 (CTF-3). Cells were treated with compounds for 6 hours and Aβ measured by ELISA. […] Changes in Aβ (percent control)±s.e.m., n=3.
# Photoaffinity labelling. All experiments used the following general protocol. Samples (recombinant or synthetic peptides, cell lysates and membrane preparations) were exposed in borosilicate test tubes to ultraviolet light (350 nm) in a Rayonet Photoreactor R100 (RPR-3500 lamps, Southern New England Ultra Violet Company) in a cold room (4° C.) for 30 minutes or as otherwise noted. Crosslinked samples were analyzed by ELISA for biotin incorporation, or analyzed directly by SDS-PAGE (Criterion-XT, Bio-Rad), or after precipitation with streptavidin ultralink plus beads (Pierce). After immunblotting, proteins were detected using chemiluminesence (ECL Plus, GEHealthcare) or near-infrared fluorescence (LiCor Odyssey). Full-length APP and APP CTFs (CTF83, CTF99) were detected with CT20, a rabbit polyclonal antibody against the C-terminus of APP. Biotin was detected with an affinity-purified rabbit polyclonal antibody (Bethyl). Cell-based screens for amyloid-β modulation. Human H4 neuroglioma cells (American Type Culture Collection, ATCC) expressing wild-type APP695 protein or CTF105 fused to secreted alkaline phosphatase which is efficiently processed to APP CTFs (CTF83, CTF99) and produce high levels of amyloid-β, were used for the cell-based screens as previously described. Cells were incubated for 5-6 hours in the presence of the various compounds in Opti-Mem culture medium containing 1% fetal bovine serum. Compounds were dissolved in dimethylsulphoxide (DMSO; 0.5% final concentration) and diluted 200-fold. Media was analyzed for various amyloid-β species (40, 42 and total) using ELISAs as described herein. The EC50 values for changes in amyloid-β species were calculated by fitting sigmoid dose-response curves using nonlinear regression in Prism (GraphPad) and are shown as values±s.e.m. Statistical analysis. Data are presented as either percentage control or mean±s.e.m. Results were analyzed using Prism (Graph Pad) with t-tests or one-way analysis of variance analyses (ANOVAs) with Dunnett's post-hoc correction for comparison of multiple samples to a control. Statistical significance is shown as P,0.05 (one asterisk), P,0.01 (two asterisks) or P,0.001 (three asterisks).
# γ-secretase = γ-secretase (Homo sapiens, UniProt P49768); assay: GSM activity of compounds that bind Aβ or Aβ amyloid (cell-based or cell-free γ-secretase assays, FIG. 12); settings: two doses (10 and 100 μM)
# Protocol: A literature search was performed to identify compounds reported to bind to the Aβ peptide directly or amyloid. These candidates were initially tested in cell-based assays or cell-free in vitro γ-secretase assays at two doses (10 and 100 μM).
# as §2
# [2] = FT-9 and FT-1 20 μM, fenofibrate 100 μM, ~16 hours
structure (smiles),measurement,setting,value
"CC(C#N)c1ccc([N+](=O)[O-])c(Oc2cc(Cl)cc(Cl)c2)c1 (centres unmarked) [FT-1, 2-(3-(3,5-dichlorophenoxy)-4-nitrophenyl)propanenitrile]",Aβ42 raised,APP wild-type cells; APP wild-type cells,200%
same,Aβ40 signal (percentage of control),APP-NOTCH TMD cells; APP-NOTCH TMD cells,90%
same,Aβ42 signal (percentage of control),APP-NOTCH TMD cells; APP-NOTCH TMD cells,95%
same,naturally secreted oligomer formation,"[1]; 50 μM, IP Western blotting",inhibit oligomer formation
same,Aβ42 production in 7PA2 cells,[1]; [2],increase production of Aβ42
same,dimeric and trimeric Aβ species,[1]; [2],reduce production of dimeric and trimeric Aβ species
"CC(C)C[C@H](NC(=O)[C@H](Cc1ccccc1)C[C@@H](O)[C@H](Cc1ccccc1)NC(=O)OC(C)(C)C)C(=O)N[C@@H](Cc1ccccc1)C(N)=O [L-685,458]",40 and 42 Aβ reactive species,"APP wild-type cells; 10 μM, 6 hours, APPwt",inhibited
same,40 and 42 Aβ reactive species,"APP-NOTCH TMD cells; 10 μM, 6 hours, APP-Notch TMD",inhibited
C[C@H](NC(=O)[C@@H](O)c1cc(F)cc(F)c1)C(=O)N[C@@H]1C(=O)N(C)c2ccccc2-c2ccccc21 [LY-411575],selectivity of Aβ reduction (Aβ42 vs Aβ40),"Tg2576 mice; Tg2576, oral gavage, 4 hours",reduces Aβ40 preferentially
C[C@@H](C(=O)O)c1ccc(-c2ccccc2)c(F)c1 [Tarenflurbil],lowering of Aβ42 in the brains,"Tg2576 mice; 50 mg kg21, Tg2576 mice, 4 h",25%
same,Aβ42 (direction of change),H4Bri-C99 (CTF-3),lowered Aβ42
same,total Aβ levels,H4Bri-C99 (CTF-3),without decreasing total Aβ levels
Clc1ccc(C(c2ccc(Cl)cc2)n2cc[n+](CC(OCc3ccc(Cl)cc3Cl)c3ccc(Cl)cc3Cl)c2)cc1 (centres unmarked) [calmidazolium],GSM activity,γ-secretase,Aβ42-raising
COc1ccc2[nH]cc(CCNC(C)=O)c2c1 [melatonin],GSM activity,γ-secretase,did not act as GSMs
